Assay results published in publication PMC8802628, “Selective activation of PFKL suppresses the phagocytic oxidative burst” (Cell, 2021).

Assays:
PMNs = experiment: NADPH/NADP+ detection assay in neutrophils; format: cell-based, human
Procedure: The ratio of NADPH/NADP^+ (or NADH/NAD^+) was calculated after measuring the individual concentrations of NADPH and NADP^+ (or NADH and NAD^+) with NADP/NADPH-Glo (or NAD/NADH-Glo) assays (Promega). […] Cells were lysed in plates by addition of 1% dodecyltrimethylammonium bromide (DTAB). To measure NADPH, half of the samples was heated at 60 °C for 30 min. The other half was treated with HCl before heating to 60°C, to measure NADP^+. All samples were neutralized before adding luciferase detection reagent, then incubated for 1 h with gentle shaking. Luminescence was recorded on a plate reader (Envision).

[1] = target: T1, 14-3-3 protein epsilon (YWHAE) (Homo sapiens, UniProt P62258); experiment: PISA of neutrophil lysates (Data S2); format: binding; settings: Comparison NA11_MidT-DMSO_MidT
T1 construct: endogenous in cells; host or cells: human blood leukocytes, labelled live
Procedure: (§1) Neutrophils (3 × 10^7) were treated with 50 nM PMA for 20 min. Cell were washed twice in D-PBS, resuspended in KB buffer (25 mM Tris-HCL pH 7.5, 1 mM DTT, 10 mM MgCl2) and frozen in liquid nitrogen. Lysates were prepared by 5-7 freeze-thaw cycles in KB buffer. Protein concentration was determined via Bradford assay and lysates were incubated on ice for 30 min with either 10 μM NA-11 or DMSO vehicle. Samples were analyzed in two formats: (1) classical thermal proteome profiling (TPP) with full melting curves using 16-plex TMT labeling (8 temperatures between 37-65°C), and (2) Proteome Integral Solubility Alteration (PISA) assay with aggregated protein abundance from a defined temperature range using 10-plex TMT labeling (Five replicates 44-58°C). Aliquots (5 mg) were divided and heated at 8 temperatures in the 37-65°C range or 6 temperatures in the 44-58°C range, and cooled on ice for 3 min.
(§2) For TPP, heated lysates from different temperatures were kept separate. For PISA, lysates from different temperatures were combined based on treatment. Samples were centrifuged at 20,000 x g for 20 min at 4°C and supernatants were isolated for analysis. Proteins were denatured in 4 M urea, reduced with 5 mM DTT at 60°C for 20 min, and alkylated with 11 mM iodoacetamide (IAA) for 20 min. Urea was diluted to 2 M with 20 mM HEPES. Proteins were digested with Lys-C (Wako) diluted 1:50 for 3 h at 37°C, and then with Trypsin (PTMScan) diluted 1:100 overnight at 37°C. Peptides were cleaned on C18 Sep-Pak cartridges, 50 mg absorbent (Waters, WAT054960) and labeled with 16-plex TMTpro or 10-plex TMT. Labeled peptides were pooled, cleaned on a C18 Sep-Pak cartridge, and fractionated by offline high pH reversed phase separation and combined into 12 fractions in checkerboard fashion. Peptides were cleared on C18 STAGE-tips before mass spectrometry.
(§3) For the classical TPP, quantitative data from each temperature were used to generate a thermal titration curve and calculate a melting point. PSM level quantitation was log2 transformed and summarized to protein level by aggregating all PSMs from the same primary Uniprot reference, and systematic variation between the treatments was normalized at each temperature. A thermal titration curve was fitted from experimental data for each protein and for each treatment condition using Self-Starting Nls Four-Parameter Logistic Model from stats v3.6.2 in R. Melting point was calculated at the 50% between intensity at the lowest temperature and intensity at the highest temperature. A quality score is calculated for each protein by evaluating R squares, curve slopes and similarity in slopes between the two fitted curves. For the PISA experiment, quantitative data from each replicate of combined temperatures were used to calculate fold changes and p values between the treatment conditions. Quantified PSMs were normalized based on global median abundance among all PSMs, and then summarized to the protein level using statistical package MSstats_3.14.1 ([Choi et al., 2014]). Fold changes and p values were calculated between pre-defined treatment groups by the MSstats package. For the photoaffinity probe based pull-down study, pairwise differential analysis was applied to treatment groups. TMT abundance of all PSMs was aggregated to their respective proteins. Ratios between each treatment group were calculated based on their mean protein abundance from replicates and a Student’s t test was applied to each pair to calculate p values. […]

[2] = target: T2, 14-3-3 protein gamma (YWHAG) (Homo sapiens, UniProt P61981); experiment: PISA of neutrophil lysates (Data S2); format: binding; settings: Comparison NA11_MidT-DMSO_MidT
T2 construct: endogenous in cells; host or cells: human neutrophil lysate
Procedure: as §1, §2, §3

[3] = target: T3, 14-3-3 protein theta (YWHAQ) (Homo sapiens, UniProt P27348); experiment: PISA of neutrophil lysates (Data S2); format: binding; settings: Comparison NA11_MidT-DMSO_MidT
T3 construct: endogenous in cells; host or cells: human neutrophil lysate
Procedure: as §1, §2, §3

[4] = target: T4, 14-3-3 protein beta/alpha (YWHAB) (Homo sapiens, UniProt P31946); experiment: PISA of neutrophil lysates (Data S2); format: binding; settings: Comparison NA11_MidT-DMSO_MidT
T4 construct: endogenous in cells; host or cells: human blood leukocytes, labelled live
Procedure: as §1, §2, §3

[5] = target: T5, 14-3-3 protein eta (YWHAH) (Homo sapiens, UniProt Q04917); experiment: PISA of neutrophil lysates (Data S2); format: binding; settings: Comparison NA11_MidT-DMSO_MidT
T5 construct: endogenous in cells; host or cells: human neutrophil lysate
Procedure: as §1, §2, §3

recombinant NAMPT = target: T6, recombinant NAMPT (Homo sapiens, UniProt P43490); experiment: NAMPT activity assay; format: biochemical; settings: 500 nM to 160 pM
T6 construct: purchased BPS Bioscience 71276-1
Procedure: NA-11 was diluted in ultra-pure water at concentrations between 500 nM to 160 pM, and preincubated with recombinant NAMPT for 30 min. NAMPT activity was measured using a fluorescence NAMPT Inhibitor Screening assay kit (BPS Bioscience).

T3 sequence (P27348 whole entry): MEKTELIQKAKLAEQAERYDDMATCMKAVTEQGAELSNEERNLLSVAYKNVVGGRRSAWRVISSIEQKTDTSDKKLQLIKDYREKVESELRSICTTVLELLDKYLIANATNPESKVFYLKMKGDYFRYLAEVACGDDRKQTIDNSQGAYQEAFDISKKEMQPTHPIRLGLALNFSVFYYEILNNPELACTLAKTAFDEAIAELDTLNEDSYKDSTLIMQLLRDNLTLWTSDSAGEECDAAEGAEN
T1 sequence (P62258 whole entry): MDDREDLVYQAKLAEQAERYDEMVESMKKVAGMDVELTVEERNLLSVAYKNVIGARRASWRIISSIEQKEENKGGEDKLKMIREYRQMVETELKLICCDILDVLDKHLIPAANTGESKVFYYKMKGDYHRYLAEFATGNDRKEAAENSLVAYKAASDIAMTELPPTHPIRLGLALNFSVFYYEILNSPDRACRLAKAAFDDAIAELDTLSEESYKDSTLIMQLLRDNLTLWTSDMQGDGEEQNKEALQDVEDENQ
T5 sequence (Q04917 whole entry): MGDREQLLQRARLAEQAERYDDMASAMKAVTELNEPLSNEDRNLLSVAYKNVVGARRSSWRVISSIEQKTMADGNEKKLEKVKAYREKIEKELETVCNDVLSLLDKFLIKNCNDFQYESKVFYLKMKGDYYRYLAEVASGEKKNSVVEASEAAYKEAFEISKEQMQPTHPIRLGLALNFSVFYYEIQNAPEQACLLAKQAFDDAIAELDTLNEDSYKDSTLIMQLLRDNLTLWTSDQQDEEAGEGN
T2 sequence (P61981 whole entry): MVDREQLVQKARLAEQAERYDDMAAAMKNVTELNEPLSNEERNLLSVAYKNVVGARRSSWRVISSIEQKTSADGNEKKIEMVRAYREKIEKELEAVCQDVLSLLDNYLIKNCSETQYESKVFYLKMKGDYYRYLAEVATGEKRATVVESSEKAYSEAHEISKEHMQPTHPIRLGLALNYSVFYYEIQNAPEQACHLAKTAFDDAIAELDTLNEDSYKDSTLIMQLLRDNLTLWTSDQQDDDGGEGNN
T4 sequence (P31946 whole entry): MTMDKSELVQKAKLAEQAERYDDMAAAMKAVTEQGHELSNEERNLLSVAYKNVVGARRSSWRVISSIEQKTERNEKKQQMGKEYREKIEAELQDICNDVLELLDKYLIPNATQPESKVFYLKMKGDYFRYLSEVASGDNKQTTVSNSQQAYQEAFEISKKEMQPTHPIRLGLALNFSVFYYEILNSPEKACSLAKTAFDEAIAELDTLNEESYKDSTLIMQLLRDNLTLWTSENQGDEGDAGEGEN
T6 sequence (P43490 whole entry, species assumed): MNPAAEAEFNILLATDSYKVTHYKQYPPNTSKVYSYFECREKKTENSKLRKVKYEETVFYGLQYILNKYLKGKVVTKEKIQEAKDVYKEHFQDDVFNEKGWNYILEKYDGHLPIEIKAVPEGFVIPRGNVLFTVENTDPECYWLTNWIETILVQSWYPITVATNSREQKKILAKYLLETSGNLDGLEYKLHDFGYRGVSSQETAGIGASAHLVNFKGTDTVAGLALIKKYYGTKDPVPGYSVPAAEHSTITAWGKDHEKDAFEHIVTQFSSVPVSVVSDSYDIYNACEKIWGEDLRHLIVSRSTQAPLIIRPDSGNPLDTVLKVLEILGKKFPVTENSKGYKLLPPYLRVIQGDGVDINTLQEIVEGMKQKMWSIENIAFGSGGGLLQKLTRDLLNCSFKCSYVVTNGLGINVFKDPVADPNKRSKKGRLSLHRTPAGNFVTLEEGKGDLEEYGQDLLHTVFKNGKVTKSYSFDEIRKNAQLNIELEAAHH

CC(=O)Nc1ccc2c(c1)OCc1cc(-c3ccccc3C#CCCCO)nn1C2 [NA-11]
NADPH replenishment / turnover after apocynin (PMNs; PMA 30 min, then apocynin): slower to replenish NADPH
NADPH/NADP+ ratio in resting cells (PMNs; resting neutrophils): did not change the NADPH/NADP^+ ratio
log2FC [1]: -0.04
log2FC [2]: 0.0136
log2FC [3]: -0.18
log2FC [4]: -0.07
log2FC [5]: 0.0948
activity of recombinant NAMPT (recombinant NAMPT): did not affect the activity of recombinant NAMPT
